# Test results as given in patent publication US12370168B2 (scPharmaceuticals Inc., priority 2013, dated 2025).
# Like-named read-outs stand apart in the source and are kept apart here.
# Key:
# [1] = unbuffered
# [2] = 8 mg/mL
# [3] = Example 3 stability of 20 mg/mL furosemide Tris-buffered solutions, pH 6.7 to 8.5, ambient temperature; conditions: Tris buffer pH 6.7 to 8.5, ambient temperature, over 48 hours
# Procedure: Samples were stored at ambient temperature and subsequently analyzed after 24 and 48 hours of storage.
# [4] = 25 mM Tris, nominal pH 7.0, 2-8° C., three months
# [5] = 25 mM Tris, nominal pH 7.0, 25° C., three months
# [6] = 25 mM Tris, nominal pH 7.0, 40° C., three months
# [7] = 25 mM Tris, nominal pH 7.0, −20° C., three months
# [8] = 25 mM Tris, nominal pH 7.4, 2-8° C., three months
# [9] = 25 mM Tris, nominal pH 7.4, 25° C., three months
# [10] = 25 mM Tris, nominal pH 7.4, 40° C., three months
# [11] = 25 mM Tris, nominal pH 7.4, −20° C., three months
# [12] = 25 mM Tris, nominal pH 8.0, 2-8° C., three months
# [13] = 25 mM Tris, nominal pH 8.0, 25° C., three months
# [14] = 25 mM Tris, nominal pH 8.0, 40° C., three months
# [15] = 25 mM Tris, nominal pH 8.0, −20° C., three months
# [16] = 50 mM Tris, nominal pH 7.0, 2-8° C., three months
# [17] = 50 mM Tris, nominal pH 7.0, 25° C., three months
# [18] = 50 mM Tris, nominal pH 7.0, 40° C., three months
# [19] = 50 mM Tris, nominal pH 7.0, −20° C., three months
# [20] = 50 mM Tris, nominal pH 7.4, 2-8° C., three months
# [21] = 50 mM Tris, nominal pH 7.4, 25° C., three months
# [22] = 50 mM Tris, nominal pH 7.4, 40° C., three months
# [23] = 50 mM Tris, nominal pH 7.4, −20° C., three months
# [24] = 50 mM Tris, nominal pH 8.0, 2-8° C., three months
# [25] = 50 mM Tris, nominal pH 8.0, 25° C., three months
# [26] = 50 mM Tris, nominal pH 8.0, 40° C., three months
# [27] = 50 mM Tris, nominal pH 8.0, −20° C., three months
# [28] = 100 mM Tris, nominal pH 7.0, 2-8° C., three months
# [29] = 100 mM Tris, nominal pH 7.0, 25° C., three months
# [30] = 100 mM Tris, nominal pH 7.0, 40° C., three months
# [31] = 100 mM Tris, nominal pH 7.0, t0
# [32] = 100 mM Tris, nominal pH 7.0, −20° C., three months
# [33] = 100 mM Tris, nominal pH 7.4, 2-8° C., three months
# [34] = 100 mM Tris, nominal pH 7.4, 25° C., three months
# [35] = 100 mM Tris, nominal pH 7.4, 40° C., three months
# [36] = 100 mM Tris, nominal pH 7.4, t0
# [37] = 100 mM Tris, nominal pH 7.4, −20° C., three months
# [38] = 100 mM Tris, nominal pH 8.0, 2-8° C., three months
# [39] = 100 mM Tris, nominal pH 8.0, 25° C., three months
# [40] = 100 mM Tris, nominal pH 8.0, 40° C., three months
# [41] = 100 mM Tris, nominal pH 8.0, t0
# [42] = 100 mM Tris, nominal pH 8.0, −20° C., three months
# [43] = 25, 50, 100 mM Tris, pH 7.0, 7.4, 8.0, −20° C. to 40° C., three months
compound,measurement,setting,value
"NS(=O)(=O)c1cc(C(=O)O)c(NCc2ccco2)cc1Cl [Furosemide, 4-chloro-2-(furan-2-ylmethylamino)-5-sulfamoyl-benzoic acid]",solution pH over time,"[1]; 0.1 mg/mL and 8 mg/mL, adjusted to pH 8 to 9 with NaOH and HCl, monitored 72 hours",continually decrease
same,reproducibility of observed pH values,"[1]; 8 mg/mL, pH 8.5, same equivalents of furosemide, acid and base",varied widely
same,Osmolality,[2]; [4],297 mOsm/kg H2O
same,[Furosemide],[2]; [4],8.01 mg/mL
same,pH,[2]; [4],7.08
same,Osmolality,[2]; [5],298 mOsm/kg H2O
same,[Furosemide],[2]; [5],7.91 mg/mL
same,pH,[2]; [5],7.09
same,Osmolality,[2]; [6],296 mOsm/kg H2O
same,[Furosemide],[2]; [6],7.89 mg/mL
same,pH,[2]; [6],7.08
same,Osmolality,"[2]; 25 mM Tris, nominal pH 7.0, t0",293 mOsm/kg H2O
same,[Furosemide],"[2]; 25 mM Tris, nominal pH 7.0, t0",8.09 mg/mL
same,pH,"[2]; 25 mM Tris, nominal pH 7.0, t0",7.02
same,Osmolality,[2]; [7],296 mOsm/kg H2O
same,[Furosemide],[2]; [7],7.91 mg/mL
same,pH,[2]; [7],7.07
same,Osmolality,[2]; [8],291 mOsm/kg H2O
same,[Furosemide],[2]; [8],7.79 mg/mL
same,pH,[2]; [8],7.49
same,Osmolality,[2]; [9],289 mOsm/kg H2O
same,[Furosemide],[2]; [9],7.81 mg/mL
same,pH,[2]; [9],7.47
same,Osmolality,[2]; [10],290 mOsm/kg H2O
same,[Furosemide],[2]; [10],7.90 mg/mL
same,pH,[2]; [10],7.47
same,Osmolality,"[2]; 25 mM Tris, nominal pH 7.4, t0",287 mOsm/kg H2O
same,[Furosemide],"[2]; 25 mM Tris, nominal pH 7.4, t0",8.00 mg/mL
same,pH,"[2]; 25 mM Tris, nominal pH 7.4, t0",7.42
same,Osmolality,[2]; [11],288 mOsm/kg H2O
same,[Furosemide],[2]; [11],7.92 mg/mL
same,pH,[2]; [11],7.47
same,Osmolality,[2]; [12],292 mOsm/kg H2O
same,[Furosemide],[2]; [12],7.97 mg/mL
same,pH,[2]; [12],8.07
same,Osmolality,[2]; [13],294 mOsm/kg H2O
same,[Furosemide],[2]; [13],7.76 mg/mL
same,pH,[2]; [13],8.06
same,Osmolality,[2]; [14],294 mOsm/kg H2O
same,[Furosemide],[2]; [14],7.99 mg/mL
same,pH,[2]; [14],8.07
same,Osmolality,"[2]; 25 mM Tris, nominal pH 8.0, t0",289 mOsm/kg H2O
same,[Furosemide],"[2]; 25 mM Tris, nominal pH 8.0, t0",8.08 mg/mL
same,pH,"[2]; 25 mM Tris, nominal pH 8.0, t0",8.04
same,Osmolality,[2]; [15],291 mOsm/kg H2O
same,[Furosemide],[2]; [15],7.91 mg/mL
same,pH,[2]; [15],8.06
same,Osmolality,[2]; [16],294 mOsm/kg H2O
same,[Furosemide],[2]; [16],8.02 mg/mL
same,pH,[2]; [16],7.10
same,Osmolality,[2]; [17],290 mOsm/kg H2O
same,[Furosemide],[2]; [17],8.07 mg/mL
same,pH,[2]; [17],7.10
same,Osmolality,[2]; [18],295 mOsm/kg H2O
same,[Furosemide],[2]; [18],7.94 mg/mL
same,pH,[2]; [18],7.12
same,Osmolality,"[2]; 50 mM Tris, nominal pH 7.0, t0",290 mOsm/kg H2O
same,[Furosemide],"[2]; 50 mM Tris, nominal pH 7.0, t0",8.06 mg/mL
same,pH,"[2]; 50 mM Tris, nominal pH 7.0, t0",7.04
same,Osmolality,[2]; [19],289 mOsm/kg H2O
same,[Furosemide],[2]; [19],8.12 mg/mL
same,pH,[2]; [19],7.13
same,Osmolality,[2]; [20],293 mOsm/kg H2O
same,[Furosemide],[2]; [20],8.10 mg/mL
same,pH,[2]; [20],7.50
same,Osmolality,[2]; [21],292 mOsm/kg H2O
same,[Furosemide],[2]; [21],7.87 mg/mL
same,pH,[2]; [21],7.49
same,Osmolality,[2]; [22],296 mOsm/kg H2O
same,[Furosemide],[2]; [22],7.97 mg/mL
same,pH,[2]; [22],7.50
same,Osmolality,"[2]; 50 mM Tris, nominal pH 7.4, t0",289 mOsm/kg H2O
same,[Furosemide],"[2]; 50 mM Tris, nominal pH 7.4, t0",8.09 mg/mL
same,pH,"[2]; 50 mM Tris, nominal pH 7.4, t0",7.44
same,Osmolality,[2]; [23],292 mOsm/kg H2O
same,[Furosemide],[2]; [23],7.93 mg/mL
same,pH,[2]; [23],7.52
same,Osmolality,[2]; [24],296 mOsm/kg H2O
same,[Furosemide],[2]; [24],7.84 mg/mL
same,pH,[2]; [24],8.10
same,Osmolality,[2]; [25],296 mOsm/kg H2O
same,[Furosemide],[2]; [25],7.82 mg/mL
same,pH,[2]; [25],8.09
same,Osmolality,[2]; [26],289 mOsm/kg H2O
same,[Furosemide],[2]; [26],7.95 mg/mL
same,pH,[2]; [26],8.10
same,Osmolality,"[2]; 50 mM Tris, nominal pH 8.0, t0",288 mOsm/kg H2O
same,[Furosemide],"[2]; 50 mM Tris, nominal pH 8.0, t0",8.14 mg/mL
same,pH,"[2]; 50 mM Tris, nominal pH 8.0, t0",8.04
same,Osmolality,[2]; [27],289 mOsm/kg H2O
same,[Furosemide],[2]; [27],7.93 mg/mL
same,pH,[2]; [27],8.11
same,Osmolality,[2]; [28],296 mOsm/kg H2O
same,[Furosemide],[2]; [28],7.89 mg/mL
same,pH,[2]; [28],7.00
same,Osmolality,[2]; [29],293 mOsm/kg H2O
same,[Furosemide],[2]; [29],7.79 mg/mL
same,pH,[2]; [29],6.99
same,Osmolality,[2]; [30],294 mOsm/kg H2O
same,[Furosemide],[2]; [30],7.87 mg/mL
same,pH,[2]; [30],6.98
same,Osmolality,[2]; [31],292 mOsm/kg H2O
same,[Furosemide],[2]; [31],8.04 mg/mL
same,pH,[2]; [31],7.02
same,Osmolality,[2]; [32],298 mOsm/kg H2O
same,[Furosemide],[2]; [32],7.90 mg/mL
same,pH,[2]; [32],7.00
same,Osmolality,[2]; [33],301 mOsm/kg H2O
same,[Furosemide],[2]; [33],7.95 mg/mL
same,pH,[2]; [33],7.41
same,Osmolality,[2]; [34],295 mOsm/kg H2O
same,[Furosemide],[2]; [34],7.82 mg/mL
same,pH,[2]; [34],7.41
same,Osmolality,[2]; [35],297 mOsm/kg H2O
same,[Furosemide],[2]; [35],7.90 mg/mL
same,pH,[2]; [35],7.39
same,Osmolality,[2]; [36],297 mOsm/kg H2O
same,[Furosemide],[2]; [36],8.17 mg/mL
same,pH,[2]; [36],7.42
same,Osmolality,[2]; [37],301 mOsm/kg H2O
same,[Furosemide],[2]; [37],7.92 mg/mL
same,pH,[2]; [37],7.42
same,Osmolality,[2]; [38],295 mOsm/kg H2O
same,[Furosemide],[2]; [38],7.91 mg/mL
same,pH,[2]; [38],7.99
same,Osmolality,[2]; [39],288 mOsm/kg H2O
same,[Furosemide],[2]; [39],7.79 mg/mL
same,pH,[2]; [39],7.97
same,Osmolality,[2]; [40],294 mOsm/kg H2O
same,[Furosemide],[2]; [40],7.79 mg/mL
same,pH,[2]; [40],7.98
same,Osmolality,[2]; [41],292 mOsm/kg H2O
same,[Furosemide],[2]; [41],8.08 mg/mL
same,pH,[2]; [41],7.99
same,Osmolality,[2]; [42],296 mOsm/kg H2O
same,[Furosemide],[2]; [42],7.89 mg/mL
same,pH,[2]; [42],7.99
same,change in furosemide concentration,[2]; [43],no change
same,change in osmolality,[2]; [43],no change
same,change in pH,[2]; [43],no change
same,change in visual appearance,[2]; [43],no change
same,change in furosemide concentration,[3],No decrease
same,pH deviation from the initial value,[3],≤ 0.1 units
